Series [1] can be described thus: solubility and dissolution of diluents in water. It is filed as physicochemical. To be noted: lactose compared with mannitol.
The conditions of series [2]: Windholz et al., 1976; cited from earlier work.

Regarding `OC[C@H]1O[C@@H](O[C@H]2[C@H](O)[C@@H](O)C(O)O[C@@H]2CO)[C@H](O)[C@@H](O)[C@H]1O` (some centres unmarked) [lactose], the rate of dissolution entry in series [1] is on record as “slower rate than mannitol”.
`OC[C@@H](O)[C@@H](O)[C@H](O)[C@H](O)CO` [mannitol]: the “solubility (amount of cold water needed to dissolve)” value in series [2] was 5.5 mL.

These data come from patent US20130252916A1, “ORAMUCOSAL PHARMACEUTICAL DOSAGE FORM” (UNIVERSITY OF THE WITWATERSRAND, JOHANNESBURG, priority 2005, published 2013).
